Data from patent US8097238B2, “Cell targeting conjugates” (Peter MacCallum Cancer Institute, priority 2004, dated 2012).
Values joined by “and” are separate entries in the source; they are usually repeats but may differ in a detail not shown here. Equal entries are not always repeated. Starred links: 1 amine or outer side, 2 acyl side, 3 side chain; linkers in the order of their positions; H or OH if unused. Positions of bridges follow the written chain, without caps; N, C: chain ends. Non-standard residues stand in square brackets, D forms with d. Residues, ends and D or L forms follow the SMILES beside them. Chains are numbered I, II in the order given. Actinocin(9to1) = Cc1c2oc3c(C)ccc(C(=O)[*:1])c3nc-2c(C(=O)[*:2])c(N)c1=O; NMeV = CN[C@H](C(=O)O)C(C)C; Sar = CNCC(=O)O

Tests used:
K562 nuclei [1] = assay: Accumulation of nuclear-associated ^125I-activity in K562 nuclei; format: cell-based, human; conditions: 200 nM protein, 37° C.
Method: After incubation for 5 minutes at 0° C., an equal volume of hypotonic buffer containing 1% (v/v) Triton X-100 was added while vortexing, and the cells were sheared by passage through a 22-gauge needle. The nuclei were separated from the cytosol by centrifugation at 1000×g for 10 minutes and the nuclear preparations were washed in hypotonic buffer and pipetted to avoid clumping. The concentration of nuclei isolated from each sample was determined by counting with a hemocytometer and the nuclear- and cytoplasm-associated ^125I-activity was determined by β-counting. In parallel assays, the nuclei were washed with 10 mM Tris-HCl, 140 mM NaCl, pH 8.3 (isotonic buffer) by centrifugation at 1000×g for 10 minutes and the nuclear associated ^125I-activity and the ^125I-activity in the supernatants was determined by β-counting.

K562 cells [2] = assay: Accumulation of cell-associated ^125I-activity in K562 cells; format: cell-based, human; conditions: 200 nM protein, 37° C.
Method: At the required time intervals (0-20 hours), the cell-associated and extracellular ^125I-ligands were separated by centrifugation at 400×g for 3 minutes and the cell-associated ^125I-activity and the ^125I-activity in the supernatants were counted in a […] (80% counting efficiency; Perkin Elmer Inc.). To elucidate whether the meta-^127I/^125I-iodoHoechst-transferrin conjugates were internalized specifically via transferrin receptor mediated endocytosis, assays were performed in parallel in the presence of 100-fold molar excess of unlabelled diferric transferrin.
In parallel with the experiment described in Example 19, cultures of K562 cells with one of the three labeled DNA ligand—transferring conjugates were incubated at 0° C., a condition that inhibits receptor-mediated endocytosis. Other assays were performed in parallel at 37° C. in the presence of the metabolic inhibitors […] (50 mM) and sodium azide (0.1% (w/v)), which are known to inhibit transferrin receptor mediated endocytosis (Ciechanover, et al. 1983).

K562 cells [3] = assay: Clonogenic survival of K562 cells after ^125I-ligand incubation; format: cell-based, human; conditions: 20 hours at 37° C., 200 nM protein
Method: K562 cells were washed three times in serum-free RPMI 1640 containing 20 mM HEPES and 80 I.U./ml gentamicin. In the representative experiment, cells (5×10^5 per ml) were incubated with a series of radioactive doses of ^125I-diferric transferrin (highest dose 3.8 μCi/ml; specific activity 18.9 Ci/mmole, 200 nM protein concentration) or with a series of radioactive doses of the required meta-^127I/^125I-iodoHoechst-transferrin conjugate (highest doses 17.5, 10.1 and 18.3 μCi/ml, specific activities 87.5, 53.3 and 98 Ci/mmole protein for the disulphide, acylhydrazone and amide linked meta-^127I/^125I-iodoHoechst-transferrin conjugates, respectively, protein concentration 200 nM, conjugation number 2.8, 2.9 and 3.1 for the disulphide, acylhydrazone and amide linked conjugates, respectively) for 20 hours at 37° C. To ensure that cytotoxicity was mediated by decay of ^125I, control assays were performed in parallel with unlabelled meta-^127I-iodoHoechst-transferrin conjugates. Furthermore, to determine whether the ^125I-induced cytotoxicity was mediated by transferrin receptor-mediated endocytosis, control assays were performed in parallel in the presence of a 50-fold molar excess of unlabelled diferric transferrin. Following incubation, the cell-pellets were isolated by centrifugation at 400×g for 3 minutes and suspended in the α-modification of Eagle's medium containing 20% (v/v) fetal bovine serum, 20 mM HEPES, 2 mM L-glutamine and 80 I.U./ml gentamicin. An appropriate cell number from each of the samples was then cloned in semi-solid (0.33% (w/v)) noble agar in 6-well microtiter plates.

plasmid DNA [4] = assay: Plasmid DNA breakage, ^124I/^125I double isotope experiments; format: biochemical
Excerpt: In experiments exactly analogous to those described in Example 25, induction of DNA double-strand breaks was investigated for ^124I-iodoHoechst 33258. The results of preliminary experiments (to our knowledge the first such experiments done with DNA-associated ^124I) are shown in FIG. 15 and Table 4.

plasmid DNA [5] = assay: Plasmid DNA breakage, ^123I/^125I double isotope method; format: biochemical
Excerpt: The experimental design exploits the plasmid DNA assay system, and agarose gel electrophoresis, as described previously to evaluate DNA breakage by the labelled minor groove binding DNA ligand, ^125I-iodoHoechst 33258 (Lobachevsky, Karagiannis and Martin 2004).
The accumulation of DNA single-stranded breaks and DNA double-stranded breaks is monitored by quantitation of the decline in the fraction of intact supercoiled plasmid (S), and the corresponding increase in the fractions of relaxed (R) and linear (L) species, with the progressive accumulation of decay events. Various assumptions enable the derivation of the relationship between the parameters S, R and L (or their normalised counterparts S′, R′ and L′), the number of decay events (n), and for example, the yield of double-stranded breaks per decay (d) of isotope in DNA-bound ligand. […] Accordingly, a double isotope strategy was developed, using a mixture of ^123I- and ^125I-iodoHoechst 33258. This approach yields a ratio d values, providing an estimate of the relative efficiency (^123I relative to ^125I) for double-strand breaks per decay, which is independent of f.
The basis of the double isotope method is apparent from the following relationship:
Where n1 is the number of ^123I decays, and n1m is the maximum (ie at time=infinity) number of ^123I decays.
A plot of the LHS term of the above equation versus n2 (the number of ^125I decay events in the incubation mixture) yields a two phase curve, the 2nd phase of which approaches a straight line (when n1=n1m). The values for the apparent breakage DNA dsb efficiency of ^123I and ^125I decays (da1 and da2, respectively) are obtained from the y intercept and from the gradient of the asymptote of the second phase of the curve, as shown in FIG. 14.
The apparent breakage efficiency is related to the actual efficiency of DNA-bound decay events, d, by the expression: da=df+δA
Where δA is the term for the “external” component of damage, arising from decay of non-DNA-bound isotope, which can be ignored because of the particular conditions of the
[formula] experiment, particularly, a low DNA concentration, A. Thus analysis of the data as exemplified in FIG. 14 provides the ratio of breakage efficiencies of ^123I versus ^125I decays.

K562 cells [6] = conditions: survival curve studies (Karagiannis, Lobachevsky and Martin 2000); cited from earlier work
DNA = conditions: literature values; cited from earlier work
K562 nuclei [7] = assay: Nuclear fluorescence of K562 cells after photolytic deiodination (quantitative fluorescence microscopy); format: cell-based, human
Method: The delivery of ortho-iodoHoechst to K562 nuclei following incubation of cells with the acylhydrazone linked transferrin-ortho-iodoHoechst conjugate was examined by quantitative fluorescence microscopy, after photolytic deiodination. K562 cells in RPMI 1640 containing 3% FBS, 20 mM HEPES and 80 I.U./ml gentamicin were incubated with the acylhydrazone linked conjugate ([…], conjugation number 1.5) for 24 hours at 37° C. Following incubation the cells were irradiated with 200 Jm^−2 UVA to generate in situ the dehalogenated ligand, which is much more fluorescent than the iodinated ligand. The cells were then washed by centrifugation and the cell-pellet was resuspended in 50 μl PBS without Ca^2+/Mg^2+. Aliquots (20 μl) were placed onto microscope slides and were allowed to air-dry. Prior to microscopy a drop of 30% PBS and 100 μM dithiothreitol in Tissuetek was added to the cells. K562 cells were observed using a fluorescence microscope (Zeiss) and a standard Hoechst filter set. Analysis of nuclear fluorescence was performed using a Bio-Rad Molecular Imager® Fx (Bio-Rad Laboratories, Hercules, Calif., USA) and Quantity One™ 4.1.1 software.

[8] = incubation period between 4-20 hours

## amide linked meta-^127I/^125I-iodoHoechst-transferrin conjugate: meta-^127I/^125I-iodoHoechst conjugated to transferrin via an amide linkage (Example 16, FIG. 4)
K562 nuclei [1]
  rate of increase of nuclear-associated ^125I-activity: 0.13 fmole ^125I-ligand/cell/minute
K562 cells [2]; first 4 hours of incubation
  rate of increase of cell-associated ^125I-activity: ~3.6 fmoles ^125I-ligand/cell/minute
K562 cells [2]; [8]
  rate of increase of cell-associated ^125I-activity: ~2.6 fmoles ^125I-ligand/cell/minute
K562 cells [3]
  dose required to produce on average one lethal event per cell (D37): 8.9 μCi/ml

## CN1CCN(c2ccc3nc(-c4ccc5nc(-c6ccc(O)c(I)c6)[nH]c5c4)[nH]c3c2)CC1 [^124I-iodoHoechst 33258]
Plasmid DNA [4]; compared with the ^123I counterpart
  efficiency of DNA-associated decays in DNA double-strand break induction: at least as efficient as those of the ^123I counterpart
Plasmid DNA [4]; preliminary experiments
  da1(^124I)/da2(^125I): 0.76 and 0.71 and 0.82 and 0.75
Plasmid DNA [4]; samples A2, A3, B1, B2
  Average da1(^124I)/da2(^125I): 0.76 ± 0.05

## CN1CCN(c2ccc3nc(-c4ccc5nc(-c6ccc(O)c(I)c6)[nH]c5c4)[nH]c3c2)CC1 [^125I-iodoHoechst 33258, reference compound]
Plasmid DNA [5]; DMSO added to 10% (D series)
  da2(^125I), apparent DNA dsb breakage efficiency: 0.252 and 0.248 and 0.258
Plasmid DNA [5]; aqueous buffer (N series)
  da2(^125I), apparent DNA dsb breakage efficiency: 0.413 and 0.397 and 0.474
K562 cells [6]
  decays corresponding to a lethal event: about 130 ^125I decays per nucleus

## COc1cccc2c1C(=O)c1c(O)c3c(c(O)c1C2=O)C[C@@](O)(C(=O)CO)C[C@@H]3O[C@H]1C[C@H](N)[C@H](O)[C@H](C)O1 [doxorubicin]
DNA
  association constant for equilibrium binding to DNA (affinity): about 10^6 M^−1

## Cc1c2oc3c(C)ccc(C(=O)N[C@@H]4C(=O)N[C@H](C(C)C)C(=O)N5CCC[C@H]5C(=O)N(C)CC(=O)N(C)[C@@H](C(C)C)C(=O)O[C@@H]4C)c3nc-2c(C(=O)N[C@@H]2C(=O)N[C@H](C(C)C)C(=O)N3CCC[C@H]3C(=O)N(C)CC(=O)N(C)[C@@H](C(C)C)C(=O)O[C@@H]2C)c(N)c1=O [Actinomycin D] (I: T[dV]P[Sar][NMeV] / II: T[dV]P[Sar][NMeV]; ester I:1-I:C, II:1-II:C; linker I:N-II:N via Actinocin(9to1))
DNA
  association constant for equilibrium binding to DNA (affinity): about 10^6 M^−1

## acylhydrazone linked transferrin-ortho-iodoHoechst conjugate: transferrin linked to ortho-iodoHoechst via an acylhydrazone linkage, conjugation number 1.5
K562 nuclei [7]; conjugation number 1.5, 24 hours at 37° C., then 200 Jm^−2 UVA
  nuclear fluorescence in K562 cell nuclei: significant fluorescence
K562 nuclei [7]; in the presence of 100-fold molar excess unmodified transferrin
  inhibition of nuclear fluorescence: largely inhibited

## ^125I-transferrin: ^125I-labelled human diferric transferrin, unconjugated comparator [reference compound]
K562 nuclei [1]
  accumulation of ^125I-activity in the nuclei: not observed
K562 cells [2]; after first 2 hours until approximately 4-5 hours
  rate of increase of cell-associated ^125I-activity: approximately 0.8 fmoles ^125I-ligand/cell/minute
K562 cells [2]; approximately the first 2 hours of incubation
  rate of increase of cell-associated ^125I-activity: approximately 5.2 fmoles ^125I-ligand/cell/minute
K562 cells [2]; incubation period between 5-20 hours
  rate of decrease in cell-associated ^125I-activity: approximately 0.2 fmoles ^125I-ligand/cell/minute
K562 cells [3]
  dose required to produce on average one lethal event per cell (D37): 31.8 μCi/ml

## disulphide linked meta-^127I/^125I-iodoHoechst-transferrin conjugate: meta-^127I/^125I-iodoHoechst conjugated to thiolated transferrin via a disulphide linkage (Example 14, FIG. 2)
K562 nuclei [1]
  rate of increase of nuclear-associated ^125I-activity: 0.21 fmole ^125I-ligand/cell/minute
K562 cells [2]; first 4 hours of incubation
  rate of increase of cell-associated ^125I-activity: approximately 7.2 fmoles ^125I-ligand/cell/minute
K562 cells [2]; [8]
  rate of increase of cell-associated ^125I-activity: approximately 6.1 fmoles ^125I-ligand/cell/minute
K562 cells [3]
  dose required to produce on average one lethal event per cell (D37): 6.0 μCi/ml

## acylhydrazone linked meta-^127I/^125I-iodoHoechst-transferrin conjugate: meta-^127I/^125I-iodoHoechst conjugated to thiolated transferrin via an acylhydrazone linkage (Example 15, FIG. 3)
K562 nuclei [1]
  rate of increase of nuclear-associated ^125I-activity: 0.38 fmole ^125I-ligand/cell/minute
K562 cells [2]; first 4 hours of incubation
  rate of increase of cell-associated ^125I-activity: ~10.4 fmoles ^125I-ligand/cell/minute
K562 cells [2]; [8]
  rate of increase of cell-associated ^125I-activity: ~5.7 fmoles ^125I-ligand/cell/minute
K562 cells [3]
  dose required to produce on average one lethal event per cell (D37): 3.8 μCi/ml
